Laboratory results published in patent publication US20260116957A1, “PHARMACEUTICAL COMPOSITION FOR AMELIORATING ACUTE LUNG INJURY AND ACUTE WORSENING OF PULMONARY FIBROSIS” (priority 2021, published 2026).
Where two headings read alike, the source gives them in different places. Residues, ends and D or L forms follow the SMILES beside them.

Experiments:
[1] = tested on: A549 alveolar epithelial cells; experiment: Apoptosis assay of A549 cells (flow cytometry, annexin V / propidium iodide); assay type: cell-based, human; conditions: for apoptotic activity compared with the parent corisin sequence: single amino acid mutants, FIG. 35; for concentration at which apoptotic activity is shown: synthetic corisin
[2] = tested on: peptidase fraction prepared from Staphylococcus nepalensis culture supernatant (putative serine protease); assay type: biochemical
[3] = tested on: A549 alveolar epithelial cells; experiment: RT-PCR of mRNA expression of pro-apoptotic and anti-apoptotic factors; assay type: cell-based, human; conditions: 50 μM corisin, 24 hours, vs scrambled peptides
Method: Next, the effect of corisin on mRNA expression of markers for pro-apoptotic factors such as Bax and anti-apoptotic factors BIRC1, BIRC5, BIRC7, Bcl2, BclXL, cyclin D1, proliferating cell nuclear antigens, and proliferating Ki-67 were examined. A549 alveolar epithelial cells were cultured in the presence of 50 μM corisin for 24 hours, total mRNA was extracted, and cDNA was prepared and amplified by RT-PCR.

[4] = tested on: TGFβ1 TG mice with pulmonary fibrosis; experiment: Corisin-induced acute exacerbation of pulmonary fibrosis in TGFβ1 TG mice; assay type: in vivo, mouse; conditions: TGFβ1 TG mice with fibrosis treated with isotype antibody
Method: Next, TGFβ1 TG mice with pulmonary fibrosis were then assigned to two groups having corresponding computed tomography (CT) scan scores (FIG. 18a, b). CT examinations were performed as follows.
Lung CT was performed using a LaTheta LCT-200 micro CT purchased from Hitachi Aloka Medical (Tokyo, Japan). Mice were anesthetized by inhalation of isoflurane and then placed in the prone position to collect data (Non-Patent Literature 19, Reference Literature 61). Seven to nine specialists in pulmonary radiology, blinded to treatment groups, scored the CT findings on the TGFβ1 TG mice with pulmonary fibrosis based on previously reported and validated criteria as follows. Score 1, Normal lung findings; score 2, interim findings; score 3, mild pulmonary fibrosis; score 4, interim findings; score 5, moderate pulmonary fibrosis; score 6, interim findings; and score 7, progressive pulmonary fibrosis (Non-Patent Literature 19). The same criteria were used to score pulmonary inflammation and fibrosis in a BLM-induced pulmonary fibrosis mouse model (FIG. 21b).
A group of fibrosis-free TGFβ1 TG mice administered intratracheal corisin served as a control (FIG. 18a, b). […]

[5] = tested on: mice with bleomycin-induced pulmonary fibrosis; experiment: Intratracheal corisin in mice with bleomycin-induced pulmonary fibrosis; assay type: in vivo, mouse; conditions: for CT scores after intratracheal corisin: 300 pg/mouse on day 20
Text: AE-Inducing Action of Corisin in Bleomycin-Induced Pulmonary Fibrosis Bleomycin (BLM)-induced pulmonary fibrosis in mice or rats is the most characterized and commonly used preclinical model for IPF studies (Reference Literature 28). It is unclear whether corisin exacerbates disease in BLM-induced pulmonary fibrosis. To address this question, an experimental model was developed in wild-type (WT) mice by infusing BLM via osmotic minipumps and administering corisin via intratracheal instillation (FIG. 21a). Bleomycin (BLM) or physiological saline (SAL) was infused from osmotic minipumps implanted subcutaneously in the backs of mice according to the experiment schedule for inducing acute exacerbation in mice with bleomycin-induced pulmonary fibrosis shown in FIG. 21a. Computed tomography (CT) scans were performed before and after intratracheal administration of corisin or a scrambled peptide before mouse euthanasia. Mice administered SAL via osmotic minipumps and intratracheal corisin or a scrambled peptide were used as a control. Mice were euthanized 22 days after BLM or SAL pump implantation.
After confirming pulmonary fibrosis onset by chest CT, autologous CT score criteria (FIG. 21b) were used to assign mice into two groups with concordant CT scores.
Wild-type (WT) mice were administered bleomycin (BLM) by osmotic minipump on day 0 and intratracheally instilled (75 μL) with corisin or a scrambled peptide (300 pg/mouse) on day 20 post-pump implantation. CTs were performed as described in Example 2. […] Next, wild-type (WT) mice were administered physiological saline (SAL) by osmotic minipump on day 0 and intratracheally instilled (75 μL) with corisin or a scrambled peptide (300 pg/mouse) on day 20 post-pump implantation.
Next, inflammatory cells and the like in mice with BLM-induced pulmonary fibrosis which had been administered intratracheal corisin were examined. Wild-type (WT) mice were administered bleomycin (BLM) or physiological saline (SAL) by osmotic minipump on day 0 and intratracheally instilled (75 μL) with corisin or a scrambled peptide ([…]) on day 20 post-pump implantation. BALF total cell counts were determined using a NucleoCounter and cell fraction counts were conducted after Giemsa staining using WindRoof image software. Levels of serum amyloid P component (SAP), MUC-1, monocyte chemoattractant protein-1 (MCP-1), periostin, collagen I, and osteopontin were measured by enzyme immunoassay according to the manufacturer's instructions.
Next, caspase-3 cleavage was evaluated by Western blotting and quantified. […] Collagen deposition was evaluated using Masson's trichrome staining and quantified using WindRoof imaging software. Pulmonary tissue content of hydroxyproline was measured by colorimetric analysis using a commercially available kit in accordance with the manufacturer's instructions. […] These findings indicate that corisin also exacerbates disease in BLM-induced pulmonary fibrosis.

[6] = tested on: Caki-2, HaCaT, ARPE-19, Caco-2, HIEC-6 and ihPOD cells; experiment: Caspase-3 cleavage by Western blotting in further epithelial cell lines; assay type: cell-based, human; conditions: 10 μg/mL peptide, 24 hours, all cell lines, vs scrambled peptide
Text: Caki-2 cell line derived from proximal tubular epithelium, HaCaT keratinocyte cell line derived from adult skin, ARPE-19 retinal pigment epithelial cell line, Caco-2 cell line derived from colon cancer, and HIEC-6 cell line derived from normal human small intestinal epithelial cells were obtained from the American Type Culture Collection (American Type Culture Collection; Manassas, VA). RPMI 1640 culture medium was purchased from Sigma-Aldrich (St. Louis, Missouri) and fetal bovine serum (FBS) was purchased from Bio Whittaker (Bio Whittaker; Walkersville, Maryland). L-glutamine, penicillin, and streptomycin were obtained from Invitrogen (Carlsbad, California). Caki-2 cells, Caco-2 cells, and ihPOD cells were cultured in RPMI 1640 culture medium, HaCaT cells in DMEM culture medium, ARPE-19 cells in DMEM/F12 culture medium, and HIEC-6 cells in DMEM culture medium.
Each cell line was cultured until subconfluent to examine caspase-3 cleavage by Western blotting. […] Cells were stimulated with 10 μg/mL of a scrambled peptide, corisin, or corisin-like peptide, cultured for 24 hours, and then Western blotting was performed.

[7] = Half-life of corisin in A549 cell culture medium; conditions: A549 alveolar epithelial cell culture (cell supernatant), human alveolar (A549) cell culture system, read-out: half-life in the solution
Method: In order to ascertain how quickly corisin is metabolized in a cell culture system, the half-life of corisin was investigated. A549 alveolar epithelial cells were cultured in DMEM to which 10% fetal bovine serum had been added until confluent. Next, corisin was inoculated into a cell culture medium at a final concentration of 10 micrograms/mL, and cell supernatant was collected after 0, 1, 3, 6, 12, and 24 hours. The concentration of corisin was measured by an enzyme immunoassay method, and the half-life of corisin was examined. […] Therefore, serum corisin measurements should be performed immediately after the onset of acute exacerbation.

[8] = tested on: mice having established pulmonary fibrosis; conditions: cited from earlier work
[9] = BLM mice, 300 μg/mouse intratracheal, vs scrambled peptide
[10] = BLM mice, corisin vs scrambled peptide

Compound: IVMPESSGNPNAVSPAGYR [corisin N14S]
- apoptotic activity compared with the parent corisin sequence [1]: devoid of apoptotic activity

Compound: Cl.NCCc1ccc(S(=O)(=O)F)cc1 [Pefabloc SC]
- suppression of transglycosylase degradation ([2]; 0.1, 0.3, 1 mM, 37° C. for 0.5, 1 and 2 hours): suppress transglycosylase degradation

Compound: O=C(O)CN(CCN(CC(=O)O)CC(=O)O)CC(=O)O [EDTA, ethylenediaminetetraacetic acid]
- suppression of transglycosylase degradation [2]: neither E-64 nor EDTA suppressed transglycosylase degradation

Compound: IVMPESSGNPNAVNAAGYR [corisin P15A]
- apoptotic activity compared with the parent corisin sequence [1]: devoid of apoptotic activity

Compound: CC[C@H](C)[C@H](N)C(=O)N[C@H](C(=O)N[C@@H](CCSC)C(=O)N1CCC[C@H]1C(=O)N[C@@H](CCC(=O)O)C(=O)N[C@@H](CO)C(=O)N[C@@H](CO)C(=O)NCC(=O)N[C@@H](CC(N)=O)C(=O)N1CCC[C@H]1C(=O)N[C@@H](CC(N)=O)C(=O)N[C@@H](C)C(=O)N[C@H](C(=O)N[C@@H](CC(N)=O)C(=O)N1CCC[C@H]1C(=O)N[C@@H](C)C(=O)NCC(=O)N[C@@H](Cc1ccc(O)cc1)C(=O)N[C@@H](CCCNC(=N)N)C(=O)O)C(C)C)C(C)C [corisin, IVMPESSGNPNAVNPAGYR] (H-IVMPESSGNPNAVNPAGYR-OH; N-terminus and C-terminus assumed)
- concentration at which apoptotic activity is shown [1]: 10 pg/mL
- concentration at which apoptotic activity is shown ([1]; A549 cells): 1e+07 pg/mL
- apoptosis-inducing activity compared to the Staphylococcus haemolyticus peptide ([1]; synthetic peptides, A549 cells, FIG. 3): slightly higher
- mRNA expression of anti-apoptotic factors [3]: significantly reduced
- mRNA expression of pro-apoptotic factors such as Bax and APAF-1 [3]: significantly increased
- CT findings after intratracheal corisin [4]: significantly worse
- circulation level of serum amyloid P component [5, 9]: increased
- level of MUC-1 [5, 9]: increased
- level of collagen I [5, 9]: increased
- level of monocyte chemoattractant protein-1 (MCP-1) [5, 9]: increased
- level of osteopontin [5, 9]: increased
- level of periostin [5, 9]: increased
- total number of lymphocytes in BALF [5, 9]: increased significantly
- collagen deposition in the lungs [5, 10]: increased
- hydroxyproline content in the lungs [5, 10]: increased
- caspase-3 cleavage (Western blotting) ([5]; BLM mice, intratracheal corisin vs scrambled peptide): significantly increased
- changes in mice administered physiological saline via osmotic minipump ([5]; SAL pump mice without fibrosis): no significant changes
- CT scores after intratracheal corisin ([5]; WT mice with BLM-induced pulmonary fibrosis): worsened significantly
- CT scores after intratracheal corisin ([5]; mice without pulmonary fibrosis (SAL pump)): did not change
- cleavage of caspase-3 [6]: significantly increased
- half-life at 10 micrograms/mL [7]: < 1 h
- effect of intrapulmonary administration [8]: causes apoptosis of alveolar epithelial cells and acute exacerbation (AE)
